Assays:
Human hemoglobin = target: T1, Human hemoglobin (Homo sapiens, UniProt P68871+P69905); assay: Reversible acylation of hemoglobin by compound 13 (HPLC profile); format: biochemical
T1 construct: purchased Sigma H7379
Experimental: The mixtures are created as described below, where experiments AL600 1× to AL 600 0.25× respectively correspond to 33 μg hemoglobin reacted with increasing concentrations of the azaisatoic compound in a mixture of DMSO and PBS at pH 7.4 (PBS=Phosphate buffered saline resulting from dissolving a tablet, reference Sigma P4417, in 200 ml water (pH 7.4)) The mixtures are incubated at room temperature for 2 hours before collecting an aliquot for HPLC analysis on a Waters XBridge BEH C4 300 column (Milford. USA), with a gradient of 20 to 72% acetonitrile in a solution of 10 mM trifluoroacetic acid, at 120 min.
One can clearly see, as before, that acylation of the hemoglobin leads to formation of a mass of acylated protein and then this mass disappears after heat treatment in order to regenerate the native protein.

Taq polymerase = target: T2, Taq polymerase (Thermus aquaticus, UniProt P19821); assay: Polymerase activity of TAQ modified by compound 13 (hairpin probe elongation fluorescence); format: biochemical; conditions: AL 604 0.375x
T2 construct: purchased Genscript E00012
Experimental: We used the Genscript Taq (2500 u/100 μl REF E00012), but in order to eliminate all traces of nucleophiles in this enzyme we did a change of buffer beforehand by passing through an Amicon 10 KD microcon (no. 42407). The enzyme suspension was thus deposited on the microcon and centrifuged until buffer depletion Five washes were performed with […] PBS pH 7.4, then the last retentate was recovered by inverting the tube and made up to QSP 20 μl with PBS to obtain a suspension at 125 u/μl. […]
The polymerization activity of the TAQ polymerase is determined using an oligonucleotide probe of 45 bases terminated by a “hairpin” structure. This is characterized by the presence of a fluorescence quencher at the beginning of the structure and a fluorophore at the end of the probe sequence, such that the quencher is spatially close to the fluorophore and no fluorescence signal can be measured in this configuration. […] Due to the elongation action, the probe hairpin structure is unfolded and the fluorophore is able to emit, and fluorescence is then measurable. This fluorescence measurement is carried out at a temperature of 60° C. for 20 minutes in the presence of the reagents required for activity of the enzyme, meaning dNTP, MgCl2, and a basic buffer at pH 9.5. […]
The ability to restore the activity of the enzyme after heating for 15 min at 95° C. for example is readily measurable by the same method.

[1] = Cleavage at 95° C. of aza-anthranilate amides and release of phenylethylamine under hot start PCR conditions (LCMS/HPLC monitoring); format: physicochemical; conditions: 60 mM Tris pH 9 PCR buffer
Experimental: Into a 1.5 mL tube are added: 20 μL 2.5 mM amide solution (10, 14 or 19) in DMSO and 180 μL of a buffer conventionally used in a genetic material amplification reaction (60 mM Tris pH 9, 50 mM […], 1 mM MgCl2). The mixture is then stirred at 95° C. in a thermomixer. LCMS monitoring (condition 1) is performed at t=15 min, 30 min, and 1 h
Thermal deprotection of the phenoxyacetate group leads to formation of the corresponding benzyl alcohol (see Diagram 7). The nucleophilic attack of alcohol on the carbonyl involved in the amide bond then allows releasing the phenylethylamine into the medium by generating the corresponding lactone.
This derivative can then be cyclized to form the corresponding […] by releasing phenylethylamine into the medium (Diagram 9 above).

T2 sequence (P19821 whole entry): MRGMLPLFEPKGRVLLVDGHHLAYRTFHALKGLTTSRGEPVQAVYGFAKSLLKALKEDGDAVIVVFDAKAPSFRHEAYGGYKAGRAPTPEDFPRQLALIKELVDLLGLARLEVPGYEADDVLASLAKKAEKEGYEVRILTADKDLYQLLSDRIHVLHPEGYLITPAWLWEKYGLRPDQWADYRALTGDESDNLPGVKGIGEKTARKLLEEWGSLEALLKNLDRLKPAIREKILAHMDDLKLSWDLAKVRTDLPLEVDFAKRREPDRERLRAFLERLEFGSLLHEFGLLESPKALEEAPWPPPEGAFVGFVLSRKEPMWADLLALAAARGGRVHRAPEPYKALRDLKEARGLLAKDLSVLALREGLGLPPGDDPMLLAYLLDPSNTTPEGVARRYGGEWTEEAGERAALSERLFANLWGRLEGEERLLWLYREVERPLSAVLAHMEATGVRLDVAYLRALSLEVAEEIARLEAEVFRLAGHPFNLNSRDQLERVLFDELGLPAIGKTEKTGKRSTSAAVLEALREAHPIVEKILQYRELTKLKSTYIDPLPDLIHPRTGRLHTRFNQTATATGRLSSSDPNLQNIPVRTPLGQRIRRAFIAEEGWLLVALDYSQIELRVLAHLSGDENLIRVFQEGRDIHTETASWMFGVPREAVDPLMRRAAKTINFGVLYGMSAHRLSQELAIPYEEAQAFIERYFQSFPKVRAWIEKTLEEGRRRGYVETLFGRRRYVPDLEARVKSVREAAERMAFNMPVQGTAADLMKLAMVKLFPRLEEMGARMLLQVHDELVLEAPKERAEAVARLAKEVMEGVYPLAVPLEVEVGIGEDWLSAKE
T1 sequence (P69905 2-142 limits assumed): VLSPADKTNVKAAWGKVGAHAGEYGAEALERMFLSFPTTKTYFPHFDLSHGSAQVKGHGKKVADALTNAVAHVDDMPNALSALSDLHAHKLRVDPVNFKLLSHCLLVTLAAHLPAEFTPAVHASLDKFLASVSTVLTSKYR
T1 sequence (P68871 2-147 limits assumed): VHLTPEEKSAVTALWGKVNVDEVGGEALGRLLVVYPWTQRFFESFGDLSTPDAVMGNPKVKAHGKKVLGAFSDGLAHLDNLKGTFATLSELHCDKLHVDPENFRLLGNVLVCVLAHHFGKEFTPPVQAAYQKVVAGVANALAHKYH

With `Cn1c(=O)oc(=O)c2c(COC(=O)COc3ccc(F)cc3)c(I)cnc21` [compound 13, (6-iodo-1-methyl-2,4-dioxo-2,4-dihydro-1H-pyrido[2,3-d][1,3]oxazine-5-yl) methyl 2-(4-fluorophenoxy)acetate] the “acylation of hemoglobin (HPLC chromatogram)” value (Human hemoglobin; 33 μg hemoglobin, AL 600 0.25x-1x, DMSO/PBS pH 7.4, room temperature, 2 hours) was “disappearance of the protein portion in favor of a massive shift to the right”, the “reversal of the acylation of hemoglobin after heat treatment (HPLC chromatogram)” value (Human hemoglobin; AL 600 1x, 95° C. for 15 min in PCR buffer (Tris pH9), taken up in 8M GuHCl) was “restoring the chromatographic profile of the native hemoglobin” and the “polymerase activity of Taq after acylation, without activation” value (Taq polymerase; 625 units Taq, DMSO/PBS pH 7.4, 3 hours room temperature, measured at 60° C. for 20 minutes) was “completely inactivated”. The “polymerase activity of Taq after acylation and heat activation” value (Taq polymerase; after treatment at 95° C. for 15 min under hot start PCR conditions) was “restored”.
With `CNc1ncc(I)c(COC(=O)COc2ccccc2)c1C(=O)NCCc1ccccc1` [derivative 10, (5-iodo-2-(methylamino)-3-(phenethylcarbamoyl)pyridine-4-yl)methyl 2-phenoxyacetate] the “species observed by HPLC after heating (cleavage of the amide derivative)” value ([1]; 15 minutes at 95° C., 10% DMSO) was “formation of the deprotected alcohol and the expected lactone” and the “population of the initial amide and the alcohol” value ([1]; 1 h at 95° C.) was “almost completely disappeared”.
With `CNc1ncc(I)c(COC(=O)COc2ccc(F)cc2)c1C(=O)NCCc1ccccc1` [derivative 14, (5-iodo-2-(methylamino)-3-(phenethylcarbamoyl)pyridine-4-yl)methyl 2-(4-fluorophenoxy)acetate] the amide population ([1]; 15 minutes at 95° C.) was “very low” and the amide population ([1]; 30 minutes at 95° C.) was “almost completely disappeared”.
In the case of `CNc1ncc(I)c(CNC(=O)OC(C)(C)C)c1C(=O)NCCc1ccccc1` [derivative 19, tert-butyl ((5-iodo-2-(methylamino)-3-(phenethylcarbamoyl)pyridine-4-yl)methyl)carbamate], the “non-cyclized deprotected form (intermediate amine) on HPLC monitoring” value ([1]; 95° C.) is reported as “not detected”.
